How the values were obtained:
[1] = system: Pyricularia oryzae (rice blast); experiment: whole plant or invertebrate; assay type: in vivo; conditions: foliar, read-out: RICE BLAST control rating
[2] = system: Southern corn rootworm (Diabrotica undecimpuctata howardi Barber); experiment: Mite/insect screen, corn rootworm; assay type: in vivo; conditions: soil; for mortality at 12 ppm / mortality at 24 ppm: Diabrotica, read-out: CRW results (percent mortality)
How it was run: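 Five 2-3 instar larvae per cup were placed on sandy soil (15 g, with presoaked corn seed) treated 6–12 h earlier with 1 mL test solution, an emulsified acetone/alcohol formulation diluted in water. Cups kept at 23° C; mortality and phytotoxicity assessed as percent after standard exposures.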

[3] = system: southern armyworm (Spodopetra eridania Cramer); experiment: Mite/insect screen, Southern armyworm; assay type: in vivo; conditions: sprayed leaves; for mortality at 200 ppm / mortality at 400 ppm: Spodoptera eridania, read-out: SAW results (percent mortality)
How it was run: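 Southern armyworm larvae placed in Petri dishes with two excised squash leaves that had been sprayed to runoff (10 psi) with emulsified compound and air-dried for 1 h. Mortality in percent recorded after a standard exposure period; formulation acetone/alcohol plus Toximul R and S, water-diluted.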

[4] = system: Twospotted spider mites (Tetranychus urticae Koch); experiment: Mite/insect screen, twospotted spider mites; assay type: in vivo; conditions: sprayed leaves; for mortality at 200 ppm / mortality at 400 ppm: Tetranychus urticae, read-out: SM results (percent mortality)
How it was run: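 Percent mortality, along with phytotoxicity, was read after standard exposure periods. Beforehand, mites established on both surfaces of squash cotyledons received a runoff spray (10 psi) of water-diluted compound formulated in acetone/alcohol with sulfonate/nonionic emulsifiers.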

[5] = system: melon aphids (Aphis gossvpii Glover); experiment: Mite/insect screen, melon aphids; assay type: in vivo; conditions: sprayed leaves; for mortality at 200 ppm / mortality at 400 ppm: Aphis, read-out: MA results (percent mortality)
How it was run: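 Percent mortality of melon aphids was assessed after standard exposure periods. Infested squash cotyledons had been sprayed on both leaf surfaces until runoff at 10 psi with water-diluted test solutions. Compounds were formulated in acetone/alcohol (50:50) containing emulsifiers.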

[6] = system: Puccinia recondita tritici (leaf rust); experiment: Plant pathology screen (Test 1), leaf rust on wheat; conditions: in Triticum aestivum, foliar, read-out: LEAF RUST control rating
[7] = system: Pseudoperonospora cubensis (downy mildew); experiment: Plant pathology screen (Test 1), downy mildew on squash; conditions: foliar, read-out: DOWN MDEW control rating
Experimental: The test compounds were formulated for application by dissolving 50 mg of the compound into 1.25 ml of solvent. The solvent was prepared by mixing 50 ml of "Tween 20" (polyoxyethylene (20) sorbitan monolaurate emulsifier) with 475 ml of acetone and 475 ml of ethanol. The solvent/compound solution was diluted to 125 ml with deionized water. The resulting formulation contains 400 ppm test chemical. Lower concentrations were obtained by serial dilution with the solvent-surfactant mixture.
The formulated test compounds were applied by foliar spray. The following plant pathogens and their corresponding plants were employed.
The formulated technical compounds were sprayed on all foliar surfaces of the host plants (or cut berry) to past run-off. Single pots of each host plant were placed on raised, revolving pedestals in a fume hood. Test solutions were sprayed on all foliar surfaces. All treatments were allowed to dry and the plants were inoculated with the appropriate pathogens within 2-4 hours.
The effectiveness of test compounds in controlling disease was rated using the following scale.

[8] = system: Erysiphe graminis tritici (powdery mildew); experiment: Plant pathology screen (Test 1), powdery mildew on wheat; conditions: Blumeria graminis, in Triticum aestivum, foliar, read-out: POWD MDEW control rating
[9] = system: Botrytis cinerea (gray mold); experiment: Plant pathology screen (Test 1), gray mold on grape berries; conditions: read-out: GRAY MOLD control rating

Compound | pest or weed control at 400 µg/mL [1] [%] | mortality at 12 ppm ([2]; CRW rate 12.00 ppm) [%] | mortality at 24 ppm ([2]; CRW rate 24.00 ppm) [%] | mortality at 200 ppm ([3]; rate 200 ppm) [%] | mortality at 400 ppm ([3]; rate 400 ppm) [%] | mortality at 200 ppm ([4]; rate 200 ppm) [%] | mortality at 400 ppm ([4]; rate 400 ppm) [%] | mortality at 200 ppm ([5]; rate 200 ppm) [%] | mortality at 400 ppm ([5]; rate 400 ppm) [%] | pest or weed control at 400 µg/mL [6] [%] | pest or weed control at 400 µg/mL [7] [%] | pest or weed control at 400 µg/mL [8] [%] | pest or weed control at 400 µg/mL [9] [%] | other results
Cc1oc2ncnc(NCCc3ccccc3)c2c1C [Example 12, 5,6-dimethyl-N-(2-phenylethyl)furo[2,3-d]pyrimidin-4-amine] | 20 to 89 | 0 | 0 | 0 | 0 | 0 | 0 | 0 | 0 | 90 to 100 | 90 to 100 | 0 to 19 | 0 to 19 | 
Cc1oc2ncnc(OCCN3C[C@@H](C)O[C@@H](C)C3)c2c1C [Example 57, Cis-5,6-dimethyl-4-[2-(2,6-dimethyl-4-morpholinyl)ethoxy]furo[2,3-d]pyrimidine] | 0 to 19 | 0 | 0 | 0 | 0 | 0 | 0 | 0 | 0 | 0 to 19 | 20 to 89 | 0 to 19 | 0 to 19 | CRW results (percent mortality) ([2]; CRW rate 12.00 ppm): 0%; CRW results (percent mortality) ([2]; CRW rate 24.00 ppm): 0%; SAW results (percent mortality) ([3]; rate 200 ppm): 0%; SAW results (percent mortality) ([3]; rate 400 ppm): 0%; SM results (percent mortality) ([4]; rate 200 ppm): 0%; SM results (percent mortality) ([4]; rate 400 ppm): 0%; MA results (percent mortality) ([5]; rate 200 ppm): 0%; MA results (percent mortality) ([5]; rate 400 ppm): 0%
Cc1oc2ncnc(NCCSCc3c(F)cccc3Cl)c2c1C [Example 14, 5,6 dimethyl-N-[2-[[(2-chloro-6-fluorophenyl)methyl]thio]ethyl]furo[2,3-d]pyrimidin-4-amine] | 0 to 19 | 0 | 0 | 0 | 0 | 0 | 0 | 0 | 0 | 0 to 19 | 0 to 19 | 0 to 19 | 0 to 19 | 
CCCCOc1ccc(CCOc2ncnc3oc(C)c(C)c23)cc1 [Example 45, 5,6-dimethyl-4-[2-[4-(n-butoxy)phenyl]ethoxy]furo[2,3-d]pyrimidine] | 0 to 19 | 0 | 0 | 0 | 0 | 90 | 100 | 90 | 90 | 90 to 100 | 20 to 89 | 20 to 89 | 0 to 19 | 
Cc1cc2c(OCCc3ccc(OC(C)(C)C)cc3)ncnc2o1 [Example 43, 6-methyl-4-[2-[4-(t-butoxy)phenyl]ethoxy]furo[2,3-d]pyrimidine] | 20 to 89 | 0 | 0 | 0 | 0 | 90 | 80 | 90 | 80 | 90 to 100 | 90 to 100 | 90 to 100 | 0 to 19 | 
Cc1coc2ncnc(NCCc3ccc4ccccc4c3)c12 [Example 21, 5-methyl-N-[2-(2-naphthyl)ethyl]furo[2,3-d]pyrimidin-4-amine] | 0 to 19 | 100 | 100 | 0 | 0 | 80 | 60 | 100 | 80 | 90 to 100 | 90 to 100 | 90 to 100 | 0 to 19 | 
Cc1ccc(CCNc2ncnc3occ(C)c23)cc1 [Example 48, 5-methyl-N-[2-(4-methylphenyl)ethyl]furo[2,3-d]pyrimidin-4-amine] | 90 to 100 | 60 | 100 | 0 | 0 | 0 | 0 | 0 | 80 | 90 to 100 | 90 to 100 | 90 to 100 | 0 to 19 | 

Source: patent US5486516A, “Furopyrimidine derivatives” (DowElanco, priority 1993, dated 1996)
